Entries after “also recorded” stand apart in the source; their conditions may differ.
Legend:
[1] = system: chronic 2K,1C Goldblatt rats; assay: Acute interventions in anesthetized chronic 2K,1C rats twelve months after clipping: MAP, cortical blood flow and renal pO2 of the clipped kidney; type: in vivo, Sprague-Dawley rats
Experimental: (§1) As described in Welch et al., Hypertension, 41:692-696 (2003) and Palm et al., Hypertension, 51:345-351 (2008), young male Sprague-Dawley rats (80-100 g) were anesthetized with isoflurane (0.5-1.5%). A silver clip (0.2 mm) was placed around the left renal artery (2K,1C). Age-matched rats were used as controls (sham).
(§2) All rats received hydralazine+hydrochlorothiazide+reserpine (HHR; 30+10+0.2 mg·kg^−1·day^−1) in the drinking water as described in Welch et al., Kidney Int., 63:202-208 (2003) in order to maximize survival of the clipped rats. The HHR treatment was discontinued 14 days prior to undergoing the protocol described hereinafter.
Twelve months after clipping, all rats were anesthetized with Inactin (100 mg·kg^−1 i.p.; Sigma-Aldrich, St. Louis, Mo.), and an endotracheal tube was inserted for spontaneous respiration. Rats were prepared according to the protocol described in Palm et al., Hypertension, 51:345-351 (2008). Briefly, the left femoral artery was catheterized for monitoring mean arterial blood pressure (MAP) and the left femoral vein for infusion of saline (5 ml·kg bw^−1·h^−1). The left kidney was immobilized in a plastic cup while renal cortical pO2 and cortical blood flow (CBF) were measured with O2 microelectrodes (Unisense, Aarhus, Denmark) and laser-Doppler needle probes (Transonic Systems Inc, Ithaca, N.Y.) as described in Palm et al., Diabetologia, 46:1153-1160 (2003); Palm et al., Hypertension, 51:345-351 (2008); and Liss et al., Pflügers Arch., 434:705-711 (1997).
Measurements in 2K,1C rats were made before and after injections of PD-123,319 (1 mg·kg bw^−1 bolus+1 mg·kg bw^−1·h^−1; Sigma Aldrich) followed 30 minutes later by either enalaprilat (0.3 mg·kg bw^−1 bolus+0.3 mg·kg bw^−l·h^−1; Novaplus 1.25 mg·m^−1; Baxter Healthcare Corporation, Deerfield, Ill.) or tempol (174 μmmol·kg bw^−1 bolus+174 μmmol·kg bw^−1·h^−1; Sigma Aldrich) followed 30 minutes later by enalaprilat or candesartan (1 mg·kg bw^−1 bolus+1 mg·kg bw^−1·h^−1; provided by Astra Zeneca, Södertälje Sweden) followed after 30 minutes by enalaprilat. […] See e.g., Duke et al., Br. J. Pharmacol., 144:486-492 (2005).
The data in Example 1 was analyzed using ANOVA for multiple data sets and Student's t-test for paired comparisons. When appropriate, this was followed by Dunnett's post hoc. […] The Mann-Whitney test was used for Western blot densitometry data. For all comparisons, p<0.05 was considered statistically significant. All values are expressed as mean±SEM.

normal rats = settings: cited from earlier work
[2] = reported, in contrast to early stage 2K,1C rats; similar results in a hypercholesterolemic pig model; cited from earlier work
essential hypertension = settings: cited from earlier work
sham rats = assay: Acute interventions in anesthetized age-matched sham rats: MAP, cortical blood flow and renal pO2; type: in vivo, Sprague-Dawley rats
Experimental: as §1, §2
Twelve months after clipping, all rats were anesthetized with Inactin (100 mg·kg^−1 i.p.; Sigma-Aldrich, St. Louis, Mo.), and an endotracheal tube was inserted for spontaneous respiration. […] The left kidney was immobilized in a plastic cup while renal cortical pO2 and cortical blood flow (CBF) were measured with O2 microelectrodes (Unisense, Aarhus, Denmark) and laser-Doppler needle probes (Transonic Systems Inc, Ithaca, N.Y.) as described in Palm et al., Diabetologia, 46:1153-1160 (2003); Palm et al., Hypertension, 51:345-351 (2008); and Liss et al., Pflügers Arch., 434:705-711 (1997). […]
The data in Example 1 was analyzed using ANOVA for multiple data sets and Student's t-test for paired comparisons. […] All values are expressed as mean±SEM.

[3] = system: 2K,1C Goldblatt rats in the early stages of renal hypertension; settings: early stage 2K,1C Goldblatt rats; prolonged administration; cited from earlier work
[4] = solutions containing Tempol; cited from earlier work
[5] = acute i.v. bolus + infusion of the agent alone
[6] = clipped kidney, agent alone, listed as tempol

For `Cc1cc(Cn2cnc3c2C[C@@H](C(=O)O)N(C(=O)C(c2ccccc2)c2ccccc2)C3)ccc1N(C)C` [PD-123,319, reference compound], the “mean arterial blood pressure (MAP)” value [1, 5] is listed as “unaffected”, the “renal cortical blood flow (CBF)” value ([1]; clipped kidney, agent alone) is listed as “Neither candesartan nor PD-123,319 alone changed CBF significantly” and the “mean arterial pressure or kidney function” value (normal rats) is listed as “has not been found to change mean arterial pressure or kidney function”.
For `CC1(C)CC(O)CC(C)(C)N1[O]` [Tempol, 4-hydroxy-2,2,6,6-tetramethyl-1-piperidine-1-oxyl], the “renal blood flow, cortical perfusion or GFR” value [2] is given as “failed to improve renal blood flow, cortical perfusion or GFR”, the anti-hypertensive effect (essential hypertension) is given as “demonstrated anti-hypertensive effect” and the “mean arterial blood pressure (MAP)” value [1, 5] is given as “lowers MAP; also recorded: more effective in lowering MAP”. The “mean arterial blood pressure (MAP)” value ([1]; acute i.v. bolus + infusion of the agent alone, listed as tempol) was “significantly more effective”, the “renal cortical blood flow (CBF)” value ([1]; clipped kidney, agent alone) was “effectively increases both the cortical blood flow and the tissue pO2” and the “renal cortical pO2” value ([1]; clipped kidney, agent alone) was “effectively increases both the cortical blood flow and the tissue pO2”. For the same molecule, the “renal medullary pO2” value ([1]; clipped kidney, agent alone) was “effectively increases both the cortical blood flow and the tissue pO2”, the “renal cortical blood flow (CBF)” value [1, 6] was “increased” and the “renal cortical pO2” value [1, 6] was “increased the cortical pO2”. For the same molecule, the “renal medullary pO2” value [1, 6] was “increased the medullary pO2”, the “renal cortical pO2” value (sham rats) was “not effective” and the “glomerular filtration rate (GFR)” value [3] was “improved the glomerular filtration rate (GFR)”. For the same molecule, the “mean arterial pressure (MAP)” value [3] was “reduced mean arterial pressure (MAP)”, the “oxygen tension (pO2) of the clipped kidney” value [3] was “improved oxygen tension (pO2) of the clipped kidney” and the renal blood flow [3] was “improved renal blood flow”. For the same molecule, the “stability of solutions left in sunlight” value [4] was “discolor when left in sunlight”.
With `C[C@H](N[C@@H](CCc1ccccc1)C(=O)O)C(=O)N1CCC[C@H]1C(=O)O` [enalaprilat, reference compound] the “renal cortical blood flow (CBF)” value ([1]; enalaprilat after tempol) was “did not change further”, the “renal medullary pO2” value ([1]; enalaprilat after tempol) was “did not change the medullary pO2 further” and the “renal cortical blood flow (CBF)” value ([1]; enalaprilat following candesartan) was “reduced significantly”. The “mean arterial blood pressure (MAP)” value ([1]; enalaprilat given 30 minutes after PD-123,319) was “did reduce the MAP”, the “mean arterial blood pressure (MAP)” value ([1]; enalaprilat given 30 minutes after candesartan) was “did not produce a further fall in MAP” and the “mean arterial blood pressure (MAP)” value ([1]; enalaprilat given 30 minutes after tempol) was “did not produce a further fall in MAP”. The “renal cortical pO2” value ([1]; tempol followed by enalaprilat) was “not changed significantly” and the “renal cortical pO2” value (sham rats) was “increased cortical pO2”.

Source: patent publication US20110130421A1, “Methods and Compositions for the Treatment of Chronic Renal Hypertension” (Georgetown University, priority 2009, published 2011)
